{"source": "patent US11547738B2", "about": "“Compositions and methods for treating fibrosis” (Cedars-Sinai Medical Center, priority 2014, dated 2023)", "key": {"[1]": {"test_system": "mouse IL-4/IL-13-induced M2 polarization", "assay": "in vitro titration assay of IL-4/IL-13-induced M2 polarization", "type": "cell-based", "details": "at 1 μM", "from_the_text": "Antibodies and flow cytometry: All antibodies used for flow cytometry were purchased from Biolegend, unless indicated. For surface staining, murine cells were stained with the following antibodies: APC-CD45.2 (109814, 1:200), PE/Cy7-CD4 (100528, 1:300), Percp/Cy5.5-CD11b (101228, 1:200), BV421-F4/80 (123137, 1:200), APC/Cy7-CD11C (117324, 1:200), PE-IL-411.a (144803 1:100), AF488-CD206 (141710, 1:100), AF700-MHCII (107622, 1:300), PB-Ly6C (128014, 1:200), PE/Cy7-Ly-6G (127617, 1:300), PE-FcεRIα (134307, 1:200), AF488-ckit (105815, 1:200), APC-eFluor780-CD45.1 (47-0453-82, eBioscience, 1:200) and PE-Siglec-F (562068, BD Biosciences, 1:200). Human cells were stained with PE/Cy7-CD14 (301814,1:100), AF488-CD206 (321114, 1:50) and APC-CD68 (333810, 1:100). […]\nCell preparation and in vitro cultures: Pancreatic leukocytes were isolated using collagenase digestion method described previously for flow cytometry analysis (Xue, J., et al. Aryl hydrocarbon receptor regulates pancreatic IL-22 production and protects mice from acute pancreatitis. Gastroenterology 143, 1670-1680 (2012)). […] Isolated PSCs were ready for use after the second passage. […] On day 6, human macrophages are ready for use (Vijayan, D. Isolation and differentiation of monocytes-macrophages from human blood. Methods Mol. Biol. 844, 183-187 (2012)). […]"}, "human macrophages": {"test_system": "human macrophages", "assay": "M2 polarization of human macrophages by hPSC conditioned medium", "type": "cell-based", "details": "hPSC_CM pretreated with 1 μM, 24 h; FIG. 6G", "protocol": "IL-4/IL-13-blocking peptide (IL4/13BP i.p., 50 μg per mouse, 5 days per week) was administrated to mice 2 weeks after starting CP induction and mice were killed as previous after 4 weeks of caerulein injections. […] (unpaired two-tailed Student's t-test). […] Scale bar, 200 μm. […] Scale bar: 50 μm. FIG. 6D and FIG. 6E show RT-PCR analysis of α-SMA and Col1α1 (Collagen1A1) gene expression in the pancreas of indicated mice. Means±s.e.m. (unpaired two-tailed Student's t-test). […] Means±s.e.m. (unpaired two-tailed Student's t-test). In FIG. 6G human macrophages as above were cultured with control medium (Con), conditioned medium from hPSCs (hPSC_CM) or hPSC_CM pretreated with 1 μM IL4/13BP (hPSC_CM+BP) for 24h. Expression of CD206 (% CD206^+ macrophages) was analysed using flow cytometry.\nAntibodies and flow cytometry: All antibodies used for flow cytometry were purchased from Biolegend, unless indicated. […]\nCell preparation and in vitro cultures: Pancreatic leukocytes were isolated using collagenase digestion method described previously for flow cytometry analysis (Xue, J., et al. Aryl hydrocarbon receptor regulates pancreatic IL-22 production and protects mice from acute pancreatitis. Gastroenterology 143, 1670-1680 (2012)). […] Isolated PSCs were ready for use after the second passage. […]"}, "E0771 tumors": {"test_system": "E0771 tumors", "assay": "syngeneic E0771 tumor model with radiation therapy", "type": "in vivo, C57BL/6 mice", "details": "for response to radiation therapy (tumor volume): 50 μg in 100 μL PBS daily injection combined with RT 16 Gy, versus RT alone, FIG. 8A", "protocol": "Syngeneic E0771 tumors were implanted in the lower mammary gland of C57BL/6 mice and allowed to grow to approximately […]. Mice were then enrolled on study (n=5/group) and treated with either PBS (Control), IL4/13 blocking peptide CSRM53567 (50 μg in 100 μL PBS, daily injection), radiation therapy (RT) alone (16 Gy) or combination of CSRM53567 peptide and RT. Mice were measured at the indicated time points with digital calipers and the resulting volume was calculated. ** p<0.01. […] There were fewer CD4+ T cells and more CD8+ T cells as a percentage of the CD45+ leukocytes in the tumors that received radiation therapy and the IL4/13 blocking peptide compared to radiation alone. […] The cytokines and CD45+ cells were all harvested at end point which is about two weeks post-RT."}, "[2]": {"test_system": "caerulein-induced CP mice", "assay": "caerulein-induced chronic pancreatitis (CP) mouse model", "type": "in vivo", "details": "for pancreas fibrosis (relative pancreas weight, H&E, Trichrome, α-SMA, Collagen1A1) / alternative activation of pancreatic macrophages (CD206 expression, flow cytometry): established CP; for pancreas fibrosis (relative pancreas weight, H&E, Trichrome, α-SMA, Collagen1A1): FIG. 6A-6E; for alternative activation of pancreatic macrophages (CD206 expression, flow cytometry): FIG. 6F", "from_the_text": "As indicated herein, agents that inhibit IL-4/IL-13 receptor function such as CRSM53567 will have benefit in several fibrosis and cancer diseases. In this design a commonly used model to cause chronic pancreatitis in rodents was created. In this model, the animal is given the cholecystokinin analogue, Caerulein, as a set of 6 intraperitoneal injections over a day repeated 3 times a week for 4 weeks. […] CD206 is a marker of the type II macrophage while MHCII is highly expressed on type I macrophage.\nPancreatitis model and treatment: AP was induced with caerulein injection in mice as previously described (Xue, J., et al. Aryl hydrocarbon receptor regulates pancreatic IL-22 production and protects mice from acute pancreatitis. Gastroenterology 143, 1670-1680 (2012); Xue, J. & Habtezion, A. Carbon monoxide-based therapy ameliorates acute pancreatitis via TLR4 inhibition. J. Clin. Invest. 124, 437-447 (2014)). CP was induced by repetitive caerulein injections (Lerch, M. M. & Gorelick, F. S. Models of acute and chronic pancreatitis. Gastroenterology 144, 1180-1193 (2013); Treiber, M. et al. Myeloid, but not pancreatic, RelA/p65 is required for fibrosis in a mouse model of chronic pancreatitis. Gastroenterology 141, e1471-e1477 (2011)). In brief, mice were given six hourly intraperitoneal (i.p.) injections of 50-μg kg^−1 body weight caerulein (Sigma-Aldrich) 3 days per week, for a total of 4 weeks. Mice were then killed and analyzed 3 days after the last caerulein injection. For blocking peptide study all mice were given caerulein injection 3 days per week for a total of 4 weeks as above, and 2 weeks following start of the caerulein injection mice were either given vehicle control (PBS) or IL-4/IL-13-blocking peptide ([…], 100 μl daily for 5 days per week×2 weeks) until being killed 4 weeks and 3 days later as above.\nHistology and immunofluorescence: Mice were killed by CO2 inhalation, and then their pancreata were rapidly removed. Pancreas pieces were immediately fixed in 10% formalin or frozen in Tissue-Tek OCT compound. Fixed tissues were sectioned and used for haemotoxylin and eosin and Trichrome staining (performed in the Histo-Tec Laboratory). Frozen tissues were also sectioned for immunofluorescence staining with indicated antibodies and analyzed with confocal microscopy.\nAntibodies and flow cytometry: All antibodies used for flow cytometry were purchased from Biolegend, unless indicated. For surface staining, murine cells were stained with the following antibodies: APC-CD45.2 (109814, 1:200), PE/Cy7-CD4 (100528, 1:300), Percp/Cy5.5-CD11b (101228, 1:200), BV421-F4/80 (123137, 1:200), APC/Cy7-CD11C (117324, 1:200), PE-IL-411.a (144803 1:100), AF488-CD206 (141710, 1:100), AF700-MHCII (107622, 1:300), PB-Ly6C (128014, 1:200), PE/Cy7-Ly-6G (127617, 1:300), PE-FcεRIα (134307, 1:200), AF488-ckit (105815, 1:200), APC-eFluor780-CD45.1 (47-0453-82, eBioscience, 1:200) and PE-Siglec-F (562068, BD Biosciences, 1:200). Human cells were stained with PE/Cy7-CD14 (301814,1:100), AF488-CD206 (321114, 1:50) and APC-CD68 (333810, 1:100). For intracellular cytokine staining, cells were activated with phorbol myristate acetate (50 ng ml^−1) and ionomycin (1 μg ml^−1), in the presence of brefeldin A (10 μg ml^−1, eBioscience) for 4h at 37° C. before staining. The cells were then fixed and permeabilized using the eBioscience kit following the manufacturer's guidelines. APC-IL10 (554468, 1:100) and isotype control (556924, 1:100) from BD Biosciences were used for intracellular staining. For intracellular TNFα staining, cells were incubated with or without lipopolysaccharide (100 ngml-1, InvivoGen) in the presence of brefeldin A before surface-staining. PE-TNFα (554419, 1:200) and isotype control (554685, 1:200) from BD Biosciences were used.\nQuantitative RT-PCR: Th pancreas or cells were lysed with Trizol reagent (Invitrogen) for total RNA preparation according to the manufacturer's instructions. […]"}, "[3]": {"details": "RT plus peptide compared to radiation alone, about two weeks post-RT"}, "[4]": {"details": "chronic pancreatitis mouse model, preliminary results, FIG. 1"}, "[5]": {"details": "i.p. 50 μg per mouse, 5 days per week, started 2 weeks after starting CP induction"}, "[6]": {"details": "i.p. 50 μg per mouse, 5 days per week, started 2 weeks after starting CP induction, listed as IL-4/13-blocking peptide"}}, "note": "“Also recorded” adds a separate entry of the source."}
{"substance": "TYR-CYS-ASP-ASP-PHE-VAL-GLY-SER-PHE-ASP-CYS-TYR (YCDDFVGSFDCY) [CSRM53567]", "values": [{"measurement": "mouse IL-4/IL-13-induced M2 polarization and CD206 expression", "setting": "[1]", "value": "significantly decreased"}, {"measurement": "hPSC-mediated M2 polarization of human macrophages (% CD206+ macrophages)", "setting": "human macrophages", "value": "capable of inhibiting"}, {"measurement": "response to radiation therapy (tumor volume)", "setting": "E0771 tumors", "value": "enhances response to radiation therapy"}, {"measurement": "response to radiation therapy (tumor volume)", "setting": "E0771 tumors; listed as IL-4/IL-13 blocking peptide", "value": "enhances the response to radiation therapy"}, {"measurement": "number of CD8+ T cells post radiation therapy", "setting": "E0771 tumors; FIG. 8B", "value": "enhances the number of CD8+ T cells"}, {"measurement": "CD4+ T cells as a percentage of the CD45+ leukocytes in the tumors", "setting": "E0771 tumors; [3]", "value": "fewer"}, {"measurement": "CD8+ T cells as a percentage of the CD45+ leukocytes in the tumors", "setting": "E0771 tumors; [3]", "value": "more"}, {"measurement": "absolute number of CD45+ leukocytes", "setting": "E0771 tumors; [3]", "value": "remained roughly the same"}, {"measurement": "macrophages in the tissue (FACS)", "setting": "[2]; chronic pancreatitis mouse model, caerulein 3 times a week for 4 weeks, preliminary results, FIG. 1B", "value": "decreases; also recorded: reduces"}, {"measurement": "fibrosis", "setting": "[2]; [4]", "value": "decreased fibrosis; also recorded: reduces"}, {"measurement": "tissue volume / pancreas shrinkage", "setting": "[2]; [4]", "value": "increase; also recorded: preventing pancreas shrinkage"}, {"measurement": "pancreas fibrosis (relative pancreas weight, H&E, Trichrome, α-SMA, Collagen1A1)", "setting": "[2]; [5]", "value": "limited pancreas fibrosis"}, {"measurement": "pancreas fibrosis (relative pancreas weight, H&E, Trichrome, α-SMA, Collagen1A1)", "setting": "[2]; [6]", "value": "ameliorated"}, {"measurement": "alternative activation of pancreatic macrophages (CD206 expression, flow cytometry)", "setting": "[2]; [5]", "value": "blockade of alternative activation"}, {"measurement": "alternative activation of pancreatic macrophages (CD206 expression, flow cytometry)", "setting": "[2]; [6]", "value": "decreased"}, {"measurement": "established CP", "setting": "[2]; i.p. 50 μg per mouse, 5 days per week, started 2 weeks after starting CP induction, FIG. 6", "value": "ameliorates established CP"}]}
